# Measured values from patent US6872562B2, “Herbicide resistant dinitrogen fixing bacteria and method of use” (priority 2001, dated 2005).
# Columns and labels:
# [1] = test system: TV5866RR soybean inoculated with B. japonicum (USDA 110); test: Growth cabinet time course of nodule acetylene reduction activity (ARA); format: in vivo, soybean (Glycine max); conditions: 1.68 kg ha^−1 at 5, 12, and 19 DAE
# Text: The time course of nodule activity from 14 to 28 DAE was followed in a series of four runs of an experiment in a growth cabinet. Soybean seeds were sown in N-free potting media in pots constructed of 15-cm diameter polyvinyl chloride pipe. These pipes allow nondestructive measurement of nodule activity by the acetylene reduction assay as described by Purcell et al. (1997). Seeds were inoculated with B. japonicum (USDA 110), and pots were supplied with N-free nutrients. […] Acetylene reduction activity (ARA) was measured at 14, 21, and 28 DAE by passing a 9:1 air to acetylene mixture through the pots at 0.5 L min^−1. After 8 min., 1-mL aliquots of the effluent gas stream were collected from each pot and analyzed for ethylene by gas chromatography. Nitrogenase activity for glyphosate-treated and control plants was similar at 14 DAE, except for Run 4 when ARA was lower for glyphosate-treated plants (Table 5). ARA was 12 to 20% lower for glyphosate-treated plants at 21 DAE in three of the four runs. By 28 DAE, ARA was lower in glyphosate-treated plants only in Run 2 and was greater than control plants in Run 1.
# [2] = test system: soybean cultivar DK5961RR; test: Greenhouse Example 3: response to glyphosate with and without available soil nitrogen; format: in vivo, soybean (Glycine max)
# Experimental: Treatments were a factorial arrangement of two harvest dates, plus and minus soil nitrogen, and plus and minus glyphosate application. Experimental conditions were similar to those described for Examples 1 and 2, including timing of nutrient applications. […] Plants were harvested at 19 and 40 DAE as described previously. For the plus nitrogen treatment, plants harvested at 19 and 40 DAE received in the nutrient solution at total of 150 and 300 mg N as NO3^−1, respectively. The experiment was a randomized complete block with six replications and was repeated.
# Wild type USDA 110 = test: Growth in Tulley's media with 5 mM glyphosate, wild type (Example 7); format: cell-based, Bradyrhizobium japonicum
# Experimental: (§1) Duplicate cultures were evaluated from each of the original colony selections. […] The cultures were allowed to grow for 14 days, and then the OD of each culture was measured.
# [3] = test system: selected B. japonicum cultures (from USDA 110); test: Growth in Tulley's media with 5 mM glyphosate, colonies selected in Example 6 (Example 7); format: cell-based, Bradyrhizobium japonicum
# Experimental: as §1
# [4] = test system: B. japonicum (strain USDA 110); test: B. japonicum growth in culture with increasing glyphosate (Example 12); format: cell-based; conditions: Bradyrhizobium japonicum, 168 h; read-out: Growth inhibition relative to the control
# Experimental: 0.1, 1, 3, and 5 mM. […] At concentrations as low as 0.01 mM, B. japonicum growth was inhibited 18% relative to the control (FIG. 4). At a concentration of 0.1 mM, growth was inhibited approximately 40% relative to the control.
# [5] = test system: glyphosate resistant soybean cultivar DK5961RR inoculated with B. japonicum (USDA 110); test: Seed-imbibed glyphosate: nodulation, growth chamber experiment; format: in vivo; conditions: glyphosate concentrations greater than 12 mM
# Experimental: Pots 15-cm in diameter, with a total volume of 1.3 L were filled with a peat based potting mix that was saturated with a nitrogen-free nutrient solution. Six seeds from a particular glyphosate-concentration seed soak were planted in each pot and 1 ml of B. japonicum (USDA 110) containing approximately 4.24×10^6 cells was applied evenly across the surface and washed into the potting mix with 250 ml of minus N nutrients. Plants were thinned to one per pot after emergence. Day and night temperatures were approximately 30 and 24 C, respectively, and natural illumination was supplemented with 1000 W metal-halide lamps for a day length of 16 hours. […] Root nodules were scanned and images were used to determine nodule number and size as influenced by glyphosate treatment. The […] was repeated in a controlled environmental growth chamber with six replications. Growth chamber temperature was a constant 25 C and light and dark periods were 16 and 8 hours, respectively. Plants were harvested at 15 days after planting and sectioned as previously described (Example 1).
# Strains USDA 123 and 138 = conditions: 5 mM concentration; cited from earlier work
# [6] = DK5961RR, Harvest 1 (19 DAE), soil nitrogen no
# [7] = DK5961RR, Harvest 1 (19 DAE), soil nitrogen yes
# [8] = DK5961RR, Harvest 2 (40 DAE), averaged over soil nitrogen treatments
smiles,measurement,setting,value
"O=C(O)CNCP(=O)(O)O [glyphosate, N-(phosphonomethyl)glycine]",Acetylene reduction activity (mean ± SE),"[1]; Run 1, 14 DAE",33 ± 2 μmol C2H4 plant^−1 h^−1
same,Acetylene reduction activity (mean ± SE),"[1]; Run 1, 21 DAE",45 ± 3 μmol C2H4 plant^−1 h^−1
same,Acetylene reduction activity (mean ± SE),"[1]; Run 1, 28 DAE",76 ± 7 μmol C2H4 plant^−1 h^−1
same,Acetylene reduction activity (mean ± SE),"[1]; Run 2, 14 DAE",23 ± 3 μmol C2H4 plant^−1 h^−1
same,Acetylene reduction activity (mean ± SE),"[1]; Run 2, 21 DAE",53 ± 6 μmol C2H4 plant^−1 h^−1
same,Acetylene reduction activity (mean ± SE),"[1]; Run 2, 28 DAE",70 ± 4 μmol C2H4 plant^−1 h^−1
same,Acetylene reduction activity (mean ± SE),"[1]; Run 3, 14 DAE",57 ± 13 μmol C2H4 plant^−1 h^−1
same,Acetylene reduction activity (mean ± SE),"[1]; Run 3, 21 DAE",75 ± 9 μmol C2H4 plant^−1 h^−1
same,Acetylene reduction activity (mean ± SE),"[1]; Run 3, 28 DAE",115 ± 13 μmol C2H4 plant^−1 h^−1
same,Acetylene reduction activity (mean ± SE),"[1]; Run 4, 14 DAE",28 ± 4 μmol C2H4 plant^−1 h^−1
same,Acetylene reduction activity (mean ± SE),"[1]; Run 4, 21 DAE",56 ± 3 μmol C2H4 plant^−1 h^−1
same,Acetylene reduction activity (mean ± SE),"[1]; Run 4, 28 DAE",107 ± 14 μmol C2H4 plant^−1 h^−1
same,Plant biomass or nitrogen content effect,"[2]; DK5961RR, 19 DAE, without soil nitrogen",did not decrease
same,Biomass Root,[2]; [6],0.30b g plant^−1
same,Biomass Shoot,[2]; [6],0.63bc g plant^−1
same,Nitrogen Root,[2]; [6],7.53b mg plant^−1
same,Nitrogen Shoot,[2]; [6],22.2c mg plant^−1
same,Biomass Shoot,[2]; [7],0.58c g plant^−1
same,Nitrogen Root,[2]; [7],5.77c mg plant^−1
same,Nitrogen Shoot,[2]; [7],31.0b mg plant^−1
same,Biomass Root,"[2]; DK5961RR, Harvest 1 (19 DAE), soil nitrogen yes, 1.68 kg ha^−1 5 and 12 DAE",0.20c g plant^−1
same,Biomass Root,[2]; [8],0.48 g plant^−1
same,Biomass Shoot,[2]; [8],1.81 g plant^−1
same,Nitrogen Root,[2]; [8],11.1 mg plant^−1
same,Nitrogen Shoot,[2]; [8],70.7 mg plant^−1
same,Shoot nitrogen content decrease,"[2]; Harvest 2 (40 DAE), averaged across soil nitrogen treatments",13%
same,"Growth, % of USDA 110 in the absence of glyphosate",Wild type USDA 110; 14 days,33%
same,OD600,"Wild type USDA 110; USDA 110, after 14 days",0.44 b^
same,"Growth, % of wild type USDA 110 in the absence of glyphosate","[3]; 45 selected colonies averaged, liquid culture, 14 days",27%
same,OD600,"[3]; Selected cultures, averaged over all strains, after 14 days",0.36 b^
same,inhibition at 10 µM,[4],18%
same,inhibition at 100 µM,[4],~40%
same,Nodule number,[5],progressively decreased
same,Inhibition,Strains USDA 123 and 138,100%
